Target: T1, CCR4 (Homo sapiens, UniProt P51679)
T1 construct: expressed in transfected cells; host or cells: HEK293
T1 sequence (P51679 1-360): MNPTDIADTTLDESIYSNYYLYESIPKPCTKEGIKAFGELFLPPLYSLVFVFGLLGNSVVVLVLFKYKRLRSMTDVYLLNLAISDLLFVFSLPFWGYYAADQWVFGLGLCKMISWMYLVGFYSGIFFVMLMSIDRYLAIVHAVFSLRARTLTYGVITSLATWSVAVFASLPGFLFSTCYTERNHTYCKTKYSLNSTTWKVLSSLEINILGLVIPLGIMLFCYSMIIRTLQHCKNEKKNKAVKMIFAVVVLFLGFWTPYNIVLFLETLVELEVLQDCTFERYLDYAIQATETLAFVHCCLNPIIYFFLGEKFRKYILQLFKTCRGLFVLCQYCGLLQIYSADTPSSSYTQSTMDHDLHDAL
Experiment: Calcium flow detected by FLIPR
Assay type: cell-based
Conditions: CCR4/HEK293 cells, agonist CCL17, Fluo-4 calcium signal
Description: CCR4/HEK293 cells were added to a 384-well cell culture plate (Greiner #781946) at a rate of 20 μL/well (20,000 cells/well) and incubated overnight in a 37° C., 5% CO2 incubator (Incubator, Thermo). On the second day, the 384-well cell culture plate was taken out of the incubator and the culture medium was removed; Then, 20 μL of detection buffer and 20 μL of 2X Fluo-4 Direct™ (Invitrogen, Cat #F10471) were added. Then, compounds were added at 10 μL/well (compounds were subjected to 4-fold serial dilution, and the highest detection concentration was 10 μM), and the cells were incubated in a 37° C., 5% CO2 incubator for 50 min, and then incubated at room temperature for 10 min. The 384-well culture plate was placed in FLIPR ([…]), 10 μL of 6X agonist CCL17 was added by using an automatic loader, and the fluorescence signal was read immediately. The mean and standard error (Mean±SEM) were statistically analyzed using Graphpad Prism software, and the IC50 value was calculated.
The experimental results are shown in Table 3, where A represents IC50<100 nm; B represents 100 nM≤IC50<500 nM, and C represents 500 nM≤IC50.

IC50 | SMILES
< 100 nM | Cc1cc(N2CC([C@H]3CCCN([C@H]4C[C@](C)(C(=O)O)C4)C3)C2)cc(N[C@H](C)c2ccc(Cl)cc2Cl)n1 [Compound 39]
< 100 nM | C[C@@H](Nc1nc(N2CC([C@H]3CCCN([C@H]4C[C@](C)(C(=O)O)C4)C3)C2)c2ccccc2n1)c1ccc(Cl)cc1Cl [Compound 40]
100 to 500 nM | C[C@@H](Nc1nc(N2CC([C@H]3CCCN([C@H]4C[C@](C)(C(=O)O)C4)C3)C2)c2ccn(C)c2n1)c1ccc(Cl)cc1Cl [Compound 43]
100 to 500 nM | C[C@@H](Nc1nc(N2CC([C@H]3CCCN([C@H]4C[C@](C)(C(=O)O)C4)C3)C2)c2c(ccn2C)n1)c1ccc(Cl)cc1Cl [Compound 44]
100 to 500 nM | C[C@@H](Nc1nc2c(c(N3CC([C@H]4CCCN([C@H]5C[C@](C)(C(=O)O)C5)C4)C3)n1)COC2)c1ccc(Cl)cc1Cl [Compound 45]
< 100 nM | C[C@@H](Nc1nc(N2CC([C@H]3CCCN([C@H]4C[C@](C)(C(=O)O)C4)C3)C2)c2occc2n1)c1ccc(Cl)cc1Cl [Compound 51]
100 to 500 nM | Cc1nc(N[C@H](C)c2ccc(Cl)cc2Cl)nc(N2CC([C@H]3CCCN([C@H]4C[C@](C)(C(=O)O)C4)C3)C2)c1Cl [Compound 56]

The next lines start with the molecule.

SMILES | IC50
Cc1nc(N2CC(C3CN(CC(C)(C)O)CCO3)C2)nc(N[C@H](C)c2ccc(Cl)cc2Cl)c1Cl (stereo partly drawn) [Compound 35] | < 100 nM
Cc1nc(N2CC([C@H]3CCCN([C@H]4C[C@](C)(C(=O)O)C4)C3)C2)nc2c1CCCN2C(C)c1ccc(Cl)cc1Cl (stereo partly drawn) [Compound 36] | 100 to 500 nM
C#Cc1ccc(C(C)Nc2nc(N3CC([C@H]4CCCN(CCO)C4)C3)nc(C)c2Cl)c(Cl)c1 (stereo partly drawn) [Compound 38] | 100 to 500 nM
C[C@@H](Nc1cc(N2CC([C@H]3CCCN([C@H]4C[C@](C)(C(=O)O)C4)C3)C2)nc(C(F)(F)F)n1)c1ccc(Cl)cc1Cl [Compound 52] | 100 to 500 nM
C[C@@H](Nc1cc(N2CC([C@H]3CCCN([C@H]4C[C@](C)(C(=O)O)C4)C3)C2)nc2nccn12)c1ccc(Cl)cc1Cl [Compound 55] | < 100 nM
Cc1nc(N2CC(C3CN(C4CC(C)(C#N)C4)CCO3)C2)nc(N[C@H](C)c2ccc(Cl)cc2Cl)c1Cl (stereo partly drawn) [Compound 70] | 100 to 500 nM
Cc1nc(N2CC(F)(C3CN(CCC(=O)O)CCO3)C2)nc(N[C@H](C)c2ccc(Cl)cc2Cl)c1Cl (stereo partly drawn) [Compound 88] | < 100 nM
C[C@@H](Nc1cc(N2CCC(C3CN(CCO)CCO3)CC2)nc2ccnn12)c1ccc(Cl)cc1Cl (stereo partly drawn) [Compound 112] | < 100 nM
